{"source": "paper PMC3651043", "about": "(Biochemistry, 2013)", "key": {"[1]": {"biological_target": "pKSI (ketosteroid isomerase from Pseudomonas putida) (Pseudomonas putida, UniProt P07445, D40A)", "sequence (P07445 whole entry D40A)": "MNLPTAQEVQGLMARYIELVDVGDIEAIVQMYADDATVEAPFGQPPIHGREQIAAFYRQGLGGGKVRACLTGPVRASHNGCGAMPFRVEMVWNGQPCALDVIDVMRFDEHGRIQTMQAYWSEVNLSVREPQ", "assay": "intrinsic fluorescence quenching", "assay_type": "binding"}, "[2]": {"biological_target": "tKSI (ketosteroid isomerase from Comamonas testosteroni) (Comamonas testosteroni, UniProt P00947)", "sequence (P00947 whole entry)": "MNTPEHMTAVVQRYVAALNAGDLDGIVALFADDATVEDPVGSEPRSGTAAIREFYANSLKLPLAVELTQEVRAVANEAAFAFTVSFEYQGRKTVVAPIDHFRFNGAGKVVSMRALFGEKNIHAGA", "assay": "intrinsic fluorescence quenching", "assay_type": "binding"}, "[3]": {"biological_target": "pKSI (ketosteroid isomerase from Pseudomonas putida) (Pseudomonas putida, UniProt P07445)", "sequence (P07445 whole entry)": "as the sequence (P07445 whole entry D40A) above, with A40D counted along it", "assay": "intrinsic fluorescence quenching", "assay_type": "binding"}, "[4]": {"biological_target": "tKSI (ketosteroid isomerase from Comamonas testosteroni) (Comamonas testosteroni, UniProt P00947, D38A)", "sequence (P00947 whole entry D38A)": "as the sequence (P00947 whole entry) above, with D38A counted along it", "assay": "intrinsic fluorescence quenching", "assay_type": "binding"}, "[5]": {"biological_target": "pKSI (ketosteroid isomerase from Pseudomonas putida) (Pseudomonas putida, UniProt P07445, D40N)", "sequence (P07445 whole entry D40N)": "as the sequence (P07445 whole entry D40A) above, with A40N counted along it", "assay": "biochemical"}, "[6]": {"biological_target": "tKSI (ketosteroid isomerase from Comamonas testosteroni) (Comamonas testosteroni, UniProt P00947, D38N)", "sequence (P00947 whole entry D38N)": "as the sequence (P00947 whole entry) above, with D38N counted along it", "assay": "biochemical"}}, "note": "pKd: −log10 of the molar value.", "data": [{"smiles": "C[C@]12CCC(=O)C=C1CC[C@@H]1[C@@H]2CC[C@]2(C)C(=O)CC[C@@H]12", "note": "[4-androstene-3,17-dione]", "values": [{"measurement": "pKd", "setting": "[1]", "value": 6.41}, {"measurement": "pKd", "setting": "[2]", "value": 4.20}, {"measurement": "pKd", "setting": "[3]", "value": 4.20}, {"measurement": "pKd", "setting": "[4]", "value": 6.04}, {"measurement": "pKd", "setting": "[5]", "value": 5.88}, {"measurement": "pKd", "setting": "[6]", "value": 4.80}]}]}
